Test results as given in patent US11912686B2 (Gilead Sciences, Inc., priority 2020, dated 2024).

Biological target: human LPAR1 (Homo sapiens (Human), UniProt Q92633)
Test: LPAR1 intracellular calcium mobilization assay (antagonist mode, FLIPR)
Assay type: cell-based
Conditions: CHO-K1 EDG2 cells expressing human LPAR1, LPA 18:2 at EC80 (100 nM), test compound 0.5 nM to 10 μM

human LPAR1, sequence (Q92633 whole entry): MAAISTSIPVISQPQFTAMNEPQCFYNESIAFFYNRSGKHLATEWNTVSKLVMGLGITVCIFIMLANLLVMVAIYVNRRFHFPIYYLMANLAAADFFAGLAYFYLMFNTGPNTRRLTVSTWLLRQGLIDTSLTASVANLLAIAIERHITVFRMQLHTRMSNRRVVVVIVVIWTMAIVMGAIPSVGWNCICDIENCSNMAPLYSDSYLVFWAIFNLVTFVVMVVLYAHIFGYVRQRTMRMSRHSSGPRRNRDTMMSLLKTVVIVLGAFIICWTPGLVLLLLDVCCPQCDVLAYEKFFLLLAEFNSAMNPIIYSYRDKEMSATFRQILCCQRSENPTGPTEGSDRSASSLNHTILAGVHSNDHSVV

SMILES | EC50 [nM]
C[C@@H](OC(=O)Nc1c(-c2ccc(NC(=O)CC(F)F)cn2)nnn1C)c1cccnc1Cl [Compound 107, (R)-1-(2-chloropyridin-3-yl)ethyl (4-(5-(3,3-difluoropropanamido)pyridin-2-yl)-1-methyl-1H-1,2,3-triazol-5-yl)carbamate] | 10000
C[C@@H](OC(=O)Nc1c(-c2ccc(NC(=O)C3CC(C)(O)C3)cn2)nnn1C)c1cccnc1Cl (stereo partly drawn) [Compound 108, (R)-1-(2-chloropyridin-3-yl)ethyl (4-(5-(3-hydroxy-3-methylcyclobutane-1-carboxamido)pyridin-2-yl)-1-methyl-1H-1,2,3-triazol-5-yl)carbamate] | 420
C[C@@H](OC(=O)Nc1c(-c2ccc(NC(=O)C3CC(C)(O)C3)cn2)nnn1C)c1cccnc1Cl (stereo partly drawn) [Compound 109, (R)-1-(2-chloropyridin-3-yl)ethyl (4-(5-(3-hydroxy-3-methylcyclobutane-1-carboxamido)pyridin-2-yl)-1-methyl-1H-1,2,3-triazol-5-yl)carbamate] | 1710
C[C@@H](OC(=O)Nc1c(-c2ccc(NC(=O)C3(CF)CC3)cn2)nnn1C)c1cccnc1Cl [Compound 110, (R)-1-(2-chloropyridin-3-yl)ethyl (4-(5-(1-(fluoromethyl)cyclopropane-1-carboxamido)pyridin-2-yl)-1-methyl-1H-1,2,3-triazol-5-yl)carbamate] | 68.2
C[C@@H](OC(=O)Nc1c(-c2ccc(NC(=O)C#CC(C)(C)O)cn2)nnn1C)c1cccnc1Cl [Compound 111, (R)-1-(2-chloropyridin-3-yl)ethyl (4-(5-(4-hydroxy-4-methylpent-2-ynamido)pyridin-2-yl)-1-methyl-1H-1,2,3-triazol-5-yl)carbamate] | 191
C[C@@H](OC(=O)Nc1c(-c2ccc(NC(=O)c3cnn(C)c3)cn2)nnn1C)c1cccnc1Cl [Compound 112, (R)-1-(2-chloropyridin-3-yl)ethyl (1-methyl-4-(5-(1-methyl-1H-pyrazole-4-carboxamido)pyridin-2-yl)-1H-1,2,3-triazol-5-yl)carbamate] | 1400
C[C@@H](OC(=O)Nc1c(-c2ccc(NC(=O)c3cn[nH]c3)cn2)nnn1C)c1cccnc1Cl [Compound 113, (R)-1-(2-chloropyridin-3-yl)ethyl (4-(5-(1H-pyrazole-4-carboxamido)pyridin-2-yl)-1-methyl-1H-1,2,3-triazol-5-yl)carbamate] | 775
C[C@@H](OC(=O)Nc1c(-c2ccc(NC(=O)C34CCC(F)(CC3)CC4)cn2)nnn1C)c1cccnc1Cl [Compound 114, (R)-1-(2-chloropyridin-3-yl)ethyl (4-(5-(4-fluorobicyclo[2.2.2]octane-1-carboxamido)pyridin-2-yl)-1-methyl-1H-1,2,3-triazol-5-yl)carbamate] | 504
C[C@@H](OC(=O)Nc1c(-c2ccc(NC(=O)C34CCC(O)(CC3)CC4)cn2)nnn1C)c1cccnc1Cl [Compound 115, (R)-1-(2-chloropyridin-3-yl)ethyl (4-(5-(4-hydroxybicyclo[2.2.2]octane-1-carboxamido)pyridin-2-yl)-1-methyl-1H-1,2,3-triazol-5-yl)carbamate] | 654
C[C@@H](OC(=O)Nc1c(-c2ccc(NC(=O)C3(C(F)F)CC3)cn2)nnn1C)c1cccnc1Cl [Compound 116, (R)-1-(2-chloropyridin-3-yl)ethyl (4-(5-(1-(difluoromethyl)cyclopropane-1-carboxamido)pyridin-2-yl)-1-methyl-1H-1,2,3-triazol-5-yl)carbamate] | 322
C[C@@H](OC(=O)Nc1c(-c2ccc(NC(=O)C34CC(O)(C3)C4)cn2)nnn1C)c1cccnc1Cl [Compound 117, (R)-1-(2-chloropyridin-3-yl)ethyl (4-(5-(3-hydroxybicyclo[1.1.1]pentane-1-carboxamido)pyridin-2-yl)-1-methyl-1H-1,2,3-triazol-5-yl)carbamate] | 1140
C[C@@H](OC(=O)Nc1c(-c2ccc(NC(=O)CC(C)(C)O)cn2)nnn1C)c1cccnc1Cl [Compound 118, (R)-1-(2-chloropyridin-3-yl)ethyl (4-(5-(3-hydroxy-3-methylbutanamido)pyridin-2-yl)-1-methyl-1H-1,2,3-triazol-5-yl)carbamate] | 1340
C[C@@H](OC(=O)Nc1c(-c2ccc(NC(=O)C3(C(F)F)CC(F)(F)C3)cn2)nnn1C)c1cccnc1Cl [Compound 119, (R)-1-(2-chloropyridin-3-yl)ethyl (4-(5-(1-(difluoromethyl)-3,3-difluorocyclobutane-1-carboxamido)pyridin-2-yl)-1-methyl-1H-1,2,3-triazol-5-yl)carbamate] | 49.9
C[C@@H](OC(=O)Nc1c(-c2ccc(NC(=O)C3(C(F)(F)F)CC(=O)C3)cn2)nnn1C)c1cccnc1Cl [Compound 120, (R)-1-(2-chloropyridin-3-yl)ethyl (1-methyl-4-(5-(3-oxo-1-(trifluoromethyl)cyclobutane-1-carboxamido)pyridin-2-yl)-1H-1,2,3-triazol-5-yl)carbamate] | 2470
C[C@@H](OC(=O)Nc1c(-c2ccc(NC(=O)[C@]3(C)C[C@H](C#N)C3)cn2)nnn1C)c1cccnc1Cl [Compound 121, (R)-1-(2-chloropyridin-3-yl)ethyl (4-(5-((1s,3S)-3-cyano-1-methylcyclobutane-1-carboxamido)pyridin-2-yl)-1-methyl-1H-1,2,3-triazol-5-yl)carbamate] | 264
C[C@@H](OC(=O)Nc1c(-c2ccc(NC(=O)[C@]3(C)C[C@@H](C#N)C3)cn2)nnn1C)c1cccnc1Cl [Compound 122, (R)-1-(2-chloropyridin-3-yl)ethyl (4-(5-((1r,3R)-3-cyano-1-methylcyclobutane-1-carboxamido)pyridin-2-yl)-1-methyl-1H-1,2,3-triazol-5-yl)carbamate] | 123
C[C@@H](OC(=O)Nc1c(-c2ccc(NC(=O)C3CC(F)(C#N)C3)cn2)nnn1C)c1cccnc1Cl (stereo partly drawn) [Compound 123, (R)-1-(2-chloropyridin-3-yl)ethyl (4-(5-(3-cyano-3-fluorocyclobutane-1-carboxamido)pyridin-2-yl)-1-methyl-1H-1,2,3-triazol-5-yl)carbamate] | 626
C[C@@H](O)C(=O)Nc1ccc(-c2nnn(C)c2NC(=O)O[C@H](C)c2cccnc2Cl)nc1 [Compound 124, (R)-1-(2-chloropyridin-3-yl)ethyl (4-(5-((R)-2-hydroxypropanamido)pyridin-2-yl)-1-methyl-1H-1,2,3-triazol-5-yl)carbamate] | 3630
C[C@H](O)C(=O)Nc1ccc(-c2nnn(C)c2NC(=O)O[C@H](C)c2cccnc2Cl)nc1 [Compound 125, (R)-1-(2-chloropyridin-3-yl)ethyl (4-(5-((S)-2-hydroxypropanamido)pyridin-2-yl)-1-methyl-1H-1,2,3-triazol-5-yl)carbamate] | 2710
C[C@@H](OC(=O)Nc1c(-c2ccc(NC(=O)CO)cn2)nnn1C)c1cccnc1Cl [Compound 126, (R)-1-(2-chloropyridin-3-yl)ethyl (4-(5-(2-hydroxyacetamido)pyridin-2-yl)-1-methyl-1H-1,2,3-triazol-5-yl)carbamate] | 1830
C[C@@H](OC(=O)Nc1c(-c2ccc(NC(=O)[C@H]3C[C@H](C#N)C3)cn2)nnn1C)c1cccnc1Cl [Compound 127, (R)-1-(2-chloropyridin-3-yl)ethyl (4-(5-((1r,3R)-3-cyanocyclobutane-1-carboxamido)pyridin-2-yl)-1-methyl-1H-1,2,3-triazol-5-yl)carbamate] | 416
